Assay results from paper PMC5218480 (PLoS ONE, 2017).

Tested on: MV-4-11 cells
Test: Gene expression microarray analysis (Affymetrix PrimeView) and GSEA
Type: cell-based, human
Parameters: RFU PODN (11730768_x_at) / Fold change /veh PODN (11730768_x_at) / RFU LINC00158 (11744669_a_at) / Fold change /veh LINC00158 (11744669_a_at) / RFU DUSP10 (11751237_a_at) / Fold change /veh DUSP10 (11751237_a_at) / RFU ID3 (11757404_x_at) / Fold change /veh ID3 (11757404_x_at) / RFU PLEKHG5 (11737974_s_at) / Fold change /veh PLEKHG5 (11737974_s_at) / RFU LRRC4B (11730491_at) / Fold change /veh LRRC4B (11730491_at) / RFU GIMAP4 (11747438_a_at) / Fold change /veh GIMAP4 (11747438_a_at) / RFU KRT8 (11758183_x_at) / Fold change /veh KRT8 (11758183_x_at) / RFU CNN1 (11734310_a_at) / Fold change /veh CNN1 (11734310_a_at) / RFU VPS37D (11726825_at) / Fold change /veh VPS37D (11726825_at) / RFU C10orf10 (11716522_x_at) / Fold change /veh C10orf10 (11716522_x_at) / RFU KIR2DL2 /// KIR2DL4 /// KIR2DL5A /// KIR2DL5B /// KIR2DS1 /// KIR2DS2 /// KIR2DS3 /// KIR2DS4 /// KIR3DL3 /// KIR3DL3 /// KIR3DS1 (11738374_at) / Fold change /veh KIR2DL2 /// KIR2DL4 /// KIR2DL5A /// KIR2DL5B /// KIR2DS1 /// KIR2DS2 /// KIR2DS3 /// KIR2DS4 /// KIR3DL3 /// KIR3DL3 /// KIR3DS1 (11738374_at) / RFU C1QL1 (11718748_at) / Fold change /veh C1QL1 (11718748_at) / RFU TMPRSS4 (11747572_a_at) / Fold change /veh TMPRSS4 (11747572_a_at) / RFU HAMP (11756126_x_at) / Fold change /veh HAMP (11756126_x_at) / RFU RNFT2 (11725882_a_at) / Fold change /veh RNFT2 (11725882_a_at) / RFU NR4A2 (11747474_a_at) / Fold change /veh NR4A2 (11747474_a_at) / RFU ABCC12 (11746883_a_at) / Fold change /veh ABCC12 (11746883_a_at) / RFU TMEM136 (11760407_x_at) / Fold change /veh TMEM136 (11760407_x_at) / RFU CLDN22 /// WWC2 (11732394_at) / Fold change /veh CLDN22 /// WWC2 (11732394_at) / RFU HLA-DPB1 (11760878_x_at) / Fold change /veh HLA-DPB1 (11760878_x_at) / RFU SPINT1 (11716480_a_at) / Fold change /veh SPINT1 (11716480_a_at) / RFU GAP43 (11754022_s_at) / Fold change /veh GAP43 (11754022_s_at) / RFU A4GNT (11735810_at) / Fold change /veh A4GNT (11735810_at) / RFU PRB3 (11715151_x_at) / Fold change /veh PRB3 (11715151_x_at) / RFU TUBB4B (11761932_at) / Fold change /veh TUBB4B (11761932_at) / RFU CAPN14 (11732068_a_at) / Fold change /veh CAPN14 (11732068_a_at) / RFU TMCC2 (11721928_a_at) / Fold change /veh TMCC2 (11721928_a_at) / RFU IRGQ (11745062_a_at) / Fold change /veh IRGQ (11745062_a_at) / RFU FAM174B (11720279_a_at) / Fold change /veh FAM174B (11720279_a_at) / RFU TMPRSS4 (11748680_a_at) / Fold change /veh TMPRSS4 (11748680_a_at) / RFU FAM212B (11763350_a_at) / Fold change /veh FAM212B (11763350_a_at) / RFU PLEKHG5 (11743358_a_at) / Fold change /veh PLEKHG5 (11743358_a_at) / RFU ZSCAN30 (11745921_a_at) / Fold change /veh ZSCAN30 (11745921_a_at) / RFU CMKLR1 (11741424_a_at) / Fold change /veh CMKLR1 (11741424_a_at) / RFU LOC101060620 /// MAPK8IP1 (11723275_at) / Fold change /veh LOC101060620 /// MAPK8IP1 (11723275_at) / RFU SPTSSB (11747773_x_at) / Fold change /veh SPTSSB (11747773_x_at) / RFU PRSS12 (11739890_at) / Fold change /veh PRSS12 (11739890_at) / RFU BIN1 (11741810_x_at) / Fold change /veh BIN1 (11741810_x_at) / RFU WNT11 (11732464_a_at) / Fold change /veh WNT11 (11732464_a_at) / RFU C10orf10 (11716521_a_at) / Fold change /veh C10orf10 (11716521_a_at) / RFU C5orf56 (11738089_at) / Fold change /veh C5orf56 (11738089_at) / RFU CYB561 (11721691_x_at) / Fold change /veh CYB561 (11721691_x_at) / RFU ANKRD19P (11752326_a_at) / Fold change /veh ANKRD19P (11752326_a_at) / RFU OR2T12 /// OR2T33 /// OR2T8 (11738714_s_at) / Fold change /veh OR2T12 /// OR2T33 /// OR2T8 (11738714_s_at) / RFU VCAN (11748164_a_at) / Fold change /veh VCAN (11748164_a_at) / RFU JSRP1 (11732532_at) / Fold change /veh JSRP1 (11732532_at) / RFU KRTAP10-11 (11738290_x_at) / Fold change /veh KRTAP10-11 (11738290_x_at) / RFU MYO3A (11730013_a_at) / Fold change /veh MYO3A (11730013_a_at) / RFU EBF3 (11725865_a_at) / Fold change /veh EBF3 (11725865_a_at) / RFU CAMK2N1 (11719241_x_at) / Fold change /veh CAMK2N1 (11719241_x_at) / RFU C5orf56 (11738088_a_at) / Fold change /veh C5orf56 (11738088_a_at) / RFU OLFML3 (11715873_a_at) / Fold change /veh OLFML3 (11715873_a_at) / RFU LOC100653217 /// NTM (11731650_a_at) / Fold change /veh LOC100653217 /// NTM (11731650_a_at) / RFU MAPK11 (11762145_a_at) / Fold change /veh MAPK11 (11762145_a_at) / RFU FIZ1 (11724087_x_at) / Fold change /veh FIZ1 (11724087_x_at) / RFU OASL (11726364_x_at) / Fold change /veh OASL (11726364_x_at) / RFU SOX15 (11748057_x_at) / Fold change /veh SOX15 (11748057_x_at) / RFU CD79A (11719716_a_at) / Fold change /veh CD79A (11719716_a_at) / RFU HIST1H1D (11736915_at) / Fold change /veh HIST1H1D (11736915_at) / RFU CASKIN2 (11723855_a_at) / Fold change /veh CASKIN2 (11723855_a_at) / RFU LOC730098 (11760151_x_at) / Fold change /veh LOC730098 (11760151_x_at) / RFU OR4N2 (11742367_at) / Fold change /veh OR4N2 (11742367_at) / RFU PRRT2 (11749266_a_at) / Fold change /veh PRRT2 (11749266_a_at) / RFU SNX32 (11753110_a_at) / Fold change /veh SNX32 (11753110_a_at) / RFU CDHR5 (11726645_a_at) / Fold change /veh CDHR5 (11726645_a_at) / RFU RCAN1 (11760418_a_at) / Fold change /veh RCAN1 (11760418_a_at) / RFU FAM167A (11723789_a_at) / Fold change /veh FAM167A (11723789_a_at) / RFU FAM26E (11764081_at) / Fold change /veh FAM26E (11764081_at) / RFU ISYNA1 (11749810_s_at) / Fold change /veh ISYNA1 (11749810_s_at) / RFU ACY1 (11761880_at) / Fold change /veh ACY1 (11761880_at) / RFU 11764098_at / Fold change /veh 11764098_at / RFU SAMD14 (11745864_x_at) / Fold change /veh SAMD14 (11745864_x_at) / RFU NPB (11741838_a_at) / Fold change /veh NPB (11741838_a_at) / RFU TMPRSS6 (11731388_a_at) / Fold change /veh TMPRSS6 (11731388_a_at) / RFU KRTAP10-2 (11738614_at) / Fold change /veh KRTAP10-2 (11738614_at) / RFU ARHGAP8 /// PRR5-ARHGAP8 (11727945_x_at) / Fold change /veh ARHGAP8 /// PRR5-ARHGAP8 (11727945_x_at) / RFU KRTAP5-7 /// NADSYN1 (11734609_at) / Fold change /veh KRTAP5-7 /// NADSYN1 (11734609_at) / RFU RASL12 (11751679_a_at) / Fold change /veh RASL12 (11751679_a_at) / RFU CDKN2B (11736163_a_at) / Fold change /veh CDKN2B (11736163_a_at) / RFU PRF1 (11729649_at) / Fold change /veh PRF1 (11729649_at) / RFU, ZNF638 /// ZNF638-IT1 / Fold change vs veh, ZNF638 /// ZNF638-IT1 / RFU, PANK3 / Fold change vs veh, PANK3 / RFU, SH3YL1 / Fold change vs veh, SH3YL1 / RFU, ZEB2 / Fold change vs veh, ZEB2 / RFU, NRIP1 / Fold change vs veh, NRIP1 / RFU, PTTG1IP / Fold change vs veh, PTTG1IP / RFU, CAPN2 / Fold change vs veh, CAPN2 / RFU, MED14 / Fold change vs veh, MED14 / RFU, SNORA58 / Fold change vs veh, SNORA58 / RFU, C1orf63 / Fold change vs veh, C1orf63 / RFU, LRRFIP1 / Fold change vs veh, LRRFIP1 / RFU, NDUFAF7 / Fold change vs veh, NDUFAF7 / RFU, SLC12A2 / Fold change vs veh, SLC12A2 / RFU, IBTK / Fold change vs veh, IBTK / RFU, ESF1 / Fold change vs veh, ESF1 / Fold change vs veh, TMEM50B / RFU, TAOK1 / Fold change vs veh, TAOK1 / RFU, ACBD3 / Fold change vs veh, ACBD3 / RFU, TMA16 / Fold change vs veh, TMA16 / RFU, RWDD3 / Fold change vs veh, RWDD3 / RFU, BCAT1 / Fold change vs veh, BCAT1 / RFU, EDEM3 / Fold change vs veh, EDEM3 / RFU, TMEM33 / Fold change vs veh, TMEM33 / RFU, WDR75 / Fold change vs veh, WDR75 / RFU, AHCTF1 / Fold change vs veh, AHCTF1 / RFU, TFRC / Fold change vs veh, TFRC / RFU, ZDHHC17 / Fold change vs veh, ZDHHC17 / RFU, NOM1 / Fold change vs veh, NOM1 / RFU, ARL8B / Fold change vs veh, ARL8B / RFU, ZBTB11 / Fold change vs veh, ZBTB11 / RFU, TAMM41 / Fold change vs veh, TAMM41 / RFU, KIAA1704 /// LOC100996395 / Fold change vs veh, KIAA1704 /// LOC100996395 / RFU, ING1 / Fold change vs veh, ING1 / RFU, TRMT61B / Fold change vs veh, TRMT61B / RFU, FUBP3 / Fold change vs veh, FUBP3 / RFU, TP53 / Fold change vs veh, TP53 / RFU, TNKS2 / Fold change vs veh, TNKS2 / RFU, ZFP14 / Fold change vs veh, ZFP14 / RFU, ACTR2 / Fold change vs veh, ACTR2 / RFU, PPP3R1 / Fold change vs veh, PPP3R1 / RFU, PIK3R1 / Fold change vs veh, PIK3R1 / RFU, HNRNPA1 / Fold change vs veh, HNRNPA1 / RFU, RNF170 / Fold change vs veh, RNF170 / RFU, ZNF28 / Fold change vs veh, ZNF28 / RFU, RNGTT / Fold change vs veh, RNGTT / RFU, OGT / Fold change vs veh, OGT / RFU, BRD1 / Fold change vs veh, BRD1 / RFU, MARS / Fold change vs veh, MARS / RFU, ZNF655 / Fold change vs veh, ZNF655 / RFU, FAHD1 / Fold change vs veh, FAHD1 / RFU, BDP1 / Fold change vs veh, BDP1 / RFU, LRRCC1 / Fold change vs veh, LRRCC1 / RFU, ARID1A / Fold change vs veh, ARID1A / RFU, ZNF146 / Fold change vs veh, ZNF146 / RFU, ZNF330 / Fold change vs veh, ZNF330 / RFU, GPN3 / Fold change vs veh, GPN3 / RFU, C9orf123 / Fold change vs veh, C9orf123 / RFU, N4BP2L2 / Fold change vs veh, N4BP2L2 / RFU, ARFIP1 / Fold change vs veh, ARFIP1 / RFU, FAM179B / Fold change vs veh, FAM179B / RFU, BCL10 / Fold change vs veh, BCL10 / RFU, UHRF1BP1L / Fold change vs veh, UHRF1BP1L / RFU, BET1 / Fold change vs veh, BET1 / RFU, CNOT2 / Fold change vs veh, CNOT2 / RFU, ZNF268 / Fold change vs veh, ZNF268 / Fold change vs veh, ZNF507 / RFU, DGCR2 / Fold change vs veh, DGCR2 / RFU, WDSUB1 / Fold change vs veh, WDSUB1 / Fold change vs veh, HSP90B1 /// MIR3652 / RFU, ADSS / Fold change vs veh, ADSS / RFU, GK / Fold change vs veh, GK / RFU, ZNF148 / Fold change vs veh, ZNF148 / RFU, TAF9 / Fold change vs veh, TAF9 / RFU, SLC1A5 / Fold change vs veh, SLC1A5 / RFU, SLMO2 / Fold change vs veh, SLMO2 / RFU, ABCC4 / Fold change vs veh, ABCC4 / RFU, LOC101060439 /// RAP1B / Fold change vs veh, LOC101060439 /// RAP1B / RFU, RFX7 / Fold change vs veh, RFX7 / RFU, GTPBP10 / Fold change vs veh, GTPBP10 / RFU, CNEP1R1 / Fold change vs veh, CNEP1R1 / RFU, BIVM-ERCC5 /// ERCC5 / Fold change vs veh, BIVM-ERCC5 /// ERCC5 / RFU, ILF3 / Fold change vs veh, ILF3 / RFU 11762660_at / Fold change /veh 11762660_at / RFU VCAN (11757783_s_at) / Fold change /veh VCAN (11757783_s_at) / RFU DDX43 (11728927_at) / Fold change /veh DDX43 (11728927_at) / RFU KRT8 (11758188_x_at) / Fold change /veh KRT8 (11758188_x_at) / RFU NKD1 (11759106_at) / Fold change /veh NKD1 (11759106_at) / RFU SRD5A1 (11742802_a_at) / Fold change /veh SRD5A1 (11742802_a_at) / RFU TPSAB1 /// TPSB2 (11721975_s_at) / Fold change /veh TPSAB1 /// TPSB2 (11721975_s_at) / RFU GSTM3 (11746129_a_at) / Fold change /veh GSTM3 (11746129_a_at) / RFU IL23R (11737362_x_at) / Fold change /veh IL23R (11737362_x_at) / RFU TMEM51 (11727254_a_at) / Fold change /veh TMEM51 (11727254_a_at) / RFU PIWIL2 (11732686_x_at) / Fold change /veh PIWIL2 (11732686_x_at) / RFU ORM1 (11744905_x_at) / Fold change /veh ORM1 (11744905_x_at) / RFU CCDC152 (11743942_at) / Fold change /veh CCDC152 (11743942_at) / RFU ECM1 (11717891_a_at) / Fold change /veh ECM1 (11717891_a_at) / RFU IL23R (11748794_a_at) / Fold change /veh IL23R (11748794_a_at) / RFU TNFAIP8L3 (11732012_x_at) / Fold change /veh TNFAIP8L3 (11732012_x_at) / RFU MBOAT4 (11741988_at) / Fold change /veh MBOAT4 (11741988_at) / RFU 11764193_at / Fold change /veh 11764193_at / RFU TMEM53 (11763286_at) / Fold change /veh TMEM53 (11763286_at) / RFU MAGEB2 (11727129_at) / Fold change /veh MAGEB2 (11727129_at) / RFU TMEM200A (11744735_a_at) / Fold change /veh TMEM200A (11744735_a_at) / RFU CCDC152 (11751479_a_at) / Fold change /veh CCDC152 (11751479_a_at) / RFU FAM211A (11726209_a_at) / Fold change /veh FAM211A (11726209_a_at) / RFU RGS16 (11746705_a_at) / Fold change /veh RGS16 (11746705_a_at) / RFU VCAN (11755009_s_at) / Fold change /veh VCAN (11755009_s_at) / RFU RHOB (11743442_s_at) / Fold change /veh RHOB (11743442_s_at) / RFU RGS16 (11720943_a_at) / Fold change /veh RGS16 (11720943_a_at) / RFU RGS16 (11720944_at) / Fold change /veh RGS16 (11720944_at) / RFU, VPS4B / Fold change vs veh, VPS4B / RFU, CREB1 / Fold change vs veh, CREB1 / RFU, DNAJC13 / Fold change vs veh, DNAJC13 / RFU, GNAQ / Fold change vs veh, GNAQ / RFU, CDK5R1 / Fold change vs veh, CDK5R1 / RFU, ZRANB3 / Fold change vs veh, ZRANB3 / RFU, CUL4A / Fold change vs veh, CUL4A / RFU, CCNY / Fold change vs veh, CCNY / RFU, UFL1 / Fold change vs veh, UFL1 / RFU, COG3 / Fold change vs veh, COG3 / RFU, DIAPH2 / Fold change vs veh, DIAPH2 / RFU, SKA2 / Fold change vs veh, SKA2 / RFU, AFF3 / Fold change vs veh, AFF3 / RFU, LMF1 / Fold change vs veh, LMF1 / RFU, IPO11 / Fold change vs veh, IPO11 / RFU, DFFB / Fold change vs veh, DFFB / RFU, FOXP1 / Fold change vs veh, FOXP1 / RFU, CARD8 / Fold change vs veh, CARD8 / RFU, STRN3 / Fold change vs veh, STRN3 / RFU, ADK / Fold change vs veh, ADK / RFU, RASSF2 / Fold change vs veh, RASSF2 / RFU, WIPF1 / Fold change vs veh, WIPF1 / RFU, LARP1B / Fold change vs veh, LARP1B / RFU, RASA1 / Fold change vs veh, RASA1 / RFU, RB1 / Fold change vs veh, RB1 / RFU, PPFIA1 / Fold change vs veh, PPFIA1 / RFU, MAT2A / Fold change vs veh, MAT2A / RFU, CCT5 / Fold change vs veh, CCT5 / RFU, WDR92 / Fold change vs veh, WDR92 / RFU, CUX1 / Fold change vs veh, CUX1 / RFU, TTC7A / Fold change vs veh, TTC7A / RFU, TMEM135 / Fold change vs veh, TMEM135 / RFU, DEPTOR / Fold change vs veh, DEPTOR / RFU, CPM / Fold change vs veh, CPM / RFU, DNAJB6 / Fold change vs veh, DNAJB6 / RFU, CACNA2D3 / Fold change vs veh, CACNA2D3 / RFU, DTX4 / Fold change vs veh, DTX4 / RFU, TFCP2 / Fold change vs veh, TFCP2 / RFU, GMCL1 /// GMCL1P1 / Fold change vs veh, GMCL1 /// GMCL1P1 / RFU, AEBP2 / Fold change vs veh, AEBP2 / RFU, SNHG1 /// SNORD22 /// SNORD25 /// SNORD26 /// SNORD27 /// SNORD28 /// SNORD29 /// SNORD31 / Fold change vs veh, SNHG1 /// SNORD22 /// SNORD25 /// SNORD26 /// SNORD27 /// SNORD28 /// SNORD29 /// SNORD31 / Fold change (Aza/veh), C12orf56 (ProbeSet 11735607_a_at) / Fold change (ACY-1035/veh), C12orf56 (ProbeSet 11735607_a_at) / Fold change (Aza/veh), FGFR1OP (ProbeSet 11751329_s_at) / Fold change (ACY-1035/veh), FGFR1OP (ProbeSet 11751329_s_at) / Fold change (Aza/veh), VPS36 (ProbeSet 11739960_a_at) / Fold change (ACY-1035/veh), VPS36 (ProbeSet 11739960_a_at) / RFU SYPL1 (11715823_x_at) / Fold change /veh SYPL1 (11715823_x_at) / RFU IGFBP7 (11715501_s_at) / Fold change /veh IGFBP7 (11715501_s_at) / RFU REEP3 (11722064_at) / Fold change /veh REEP3 (11722064_at) / RFU IGLL1 (11728026_x_at) / Fold change /veh IGLL1 (11728026_x_at): dose or concentration left out as unconfirmed
Settings: ProbeSet 11723141_at; LIST B

**Q.** For `Nc1ncn([C@@H]2O[C@H](CO)[C@@H](O)[C@H]2O)c(=O)n1` [azacitidine], which “Fold change vs veh, ZBTB11” value is on record?
**A.** The value was 0.93.
